Read-outs that look alike come from different tables or passages of the source. Each block holds one compound with its values, some of them ahead of it.
Experiments:
[1] = target: T1, Cb5R in rat liver microsomes (Rattus norvegicus, UniProt P20070); assay: NADH: ferricyanide reductase activity in rat liver microsomes; type: biochemical; details: for inhibition at 40 µM: 40 µM compound; for IC50: microsomes 5.6 µg/mL of protein; for Maximum inhibition of NADH: ferricyanide reductase activity in microsomes, E form / Maximum inhibition of NADH: ferricyanide reductase activity in microsomes, NE form: up to 100 µM compound
T1 construct: testing the action of compounds 1 and 5 against the Cb5R present in rat liver microsomes; from tissue; host or cells: rat liver microsomes
T1 sequence (P20070 1-301): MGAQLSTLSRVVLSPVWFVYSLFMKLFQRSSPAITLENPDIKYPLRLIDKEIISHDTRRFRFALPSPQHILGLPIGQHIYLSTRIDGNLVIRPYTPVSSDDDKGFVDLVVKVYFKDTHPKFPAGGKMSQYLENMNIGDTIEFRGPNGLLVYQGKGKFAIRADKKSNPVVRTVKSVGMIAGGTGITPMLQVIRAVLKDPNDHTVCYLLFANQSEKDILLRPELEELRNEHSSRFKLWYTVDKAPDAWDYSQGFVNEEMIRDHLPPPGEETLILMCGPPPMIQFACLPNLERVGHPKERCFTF
Procedure: To further assess the biological relevance of the tested compounds as inhibitors of the Cb5R, we measure the inhibition dependence of the NADH: ferricyanide reductase activity in rat liver microsomes (Figure 6a). All tested compounds follow a dose-dependent effect on this activity, although the maximum inhibition achieved for them was not the same as measured with the purified recombinant enzyme.
(§1) Livers were obtained from add livitum rats. Microsomes were prepared as previously performed, with slight differences. […] Buffer (3 mL) was used per gram of liver tissue. After homogenization, the lysate was centrifuged at 960× g for 10 min at 4 °C. The supernatant was collected and centrifuged at 9800× g for 20 min at 4 °C. Finally, the supernatant was centrifuged at 53170× g for 60 min at 4 °C. The microsomal sediment was resuspended in the same buffer and frizzed at −80 °C until use.

[2] = target: T1, Cb5R in rat liver microsomes; assay: NADH: Cb5 reductase activity of rat liver microsomes; type: biochemical; details: 40 µM compound, Cb5 5 μM, NADH 150 μM
Procedure: We measured the inhibition of the NADH: Cb5 reductase activity with a fixed concentration of the compounds (Figure 6b) and compared the values with those of the NADH: ferricyanide reductase activity in microsomes (Figure 6a).
as §1

Cb5R from microsomes = target: T2, Cb5R from microsomes (Rattus norvegicus, UniProt P20070); assay: NADH-dependent superoxide anion production (NADH: NBT reductase activity sensitive to SOD and CAT) of microsomes; type: biochemical; details: microsomes 5.2 µg/mL, without compound 2.3 ± 0.1; for Superoxide anion production of microsomes in presence of compound, NE form: non-equilibrated
T2 construct: testing the action of compounds 1 and 5 against the Cb5R present in rat liver microsomes; from tissue; host or cells: rat liver microsomes
T2 sequence (P20070 1-301): T1 sequence (P20070 1-301)
Procedure: Finally, we measured the effect of compounds 1 and 5 on the previously described NADH-dependent superoxide anion production of the Cb5R by quantifying the inhibitory effect of the compounds on the NADH: nitro blue tetrazolium (NBT) reductase activity of Cb5R from microsomes sensitive to superoxide dismutase (SOD) and catalase (CAT) (Figure 6c). The NADH: NBT reductase activity of Cb5R measured with microsomes (5.2 µg/mL) was 4.4 ± 0.1 µM/min.

[3] = UV-vis spectra of species interconversion in phosphate buffer pH 7.0; type: physicochemical; details: 24 h in phosphate buffer pH 7.0, relative to value after 2 min incubation
Procedure: The stock solutions of the flavylium compounds were prepared in dimethyl sulfoxide (DMSO): H2O (99:1) containing 0.1M of HCl. To estimate the predominant species of the used compounds (Figure 1), 10 µL of stock solution of each compound was added to potassium phosphate buffer at pH 7.0. The UV-vis spectra were recorded immediately (Figure S1, black lines) and after 2 min (red lines). […] The spectral signatures, i.e., the observation of absorption bands in the visible and UV-vis regions, pointed out the existence of the quinoidal base and colorless hemiketal/chalcone species mixtures under non-equilibrated conditions.
Stock solutions of compounds at acid pH values (non-equilibrated (NE) in the media) and by incubation in phosphate buffer at pH 7.0 for 24 h were prepared, and their UV-vis was measured in phosphate buffer pH 7.0. As expected, the mole fraction of the quinoidal base of compounds 1 and 5 partially disappeared, leading to the formation of the respective trans-chalcone species after a 24 h incubation in phosphate buffer at pH 7.0 (Supplementary Figure S2). We monitored the spectra of compounds 1 and 5 (black and grey line, respectively) after immediate addition into phosphate buffer pH 7.0 (continuous line) or after incubation in this buffer for 24 h (dotted line). […]

[4] = test system: NADH: ferricytochrome b5 reductase; design: method as in PMID 22542668; details: cited from earlier work; for IC50: read-out: IC50 against NADH: ferricytochrome b5 reductase
[5] = equilibrated, read-out: Inhibition of NADH: ferricyanide reductase activity of microsomes, E form
[6] = non-equilibrated, read-out: Inhibition of NADH: ferricyanide reductase activity of microsomes, NE form
[7] = equilibrated, read-out: IC50, NADH: ferricyanide reductase activity of microsomes, E form
[8] = equilibrated, read-out: Inhibition of NADH: Cb5 reductase activity of microsomes, E form
[9] = non-equilibrated, read-out: Inhibition of NADH: Cb5 reductase activity of microsomes, NE form

inhibition at 40 µM [1, 5]: 63.4 ± 3.6%
inhibition at 40 µM [1, 6]: 4.6 ± 4%
IC50 [1, 7]: 18 ± 3.8 µM
Maximum inhibition of NADH: ferricyanide reductase activity in microsomes, E form ([1]; equilibrated): 85 ±2%
Maximum inhibition of NADH: ferricyanide reductase activity in microsomes, NE form ([1]; non-equilibrated): 11 ±7%
inhibition at 40 µM [2, 8]: 58.8 ± 1.5%
inhibition at 40 µM [2, 9]: 25 ± 5.3%
Superoxide anion production of microsomes in presence of compound, E form (Cb5R from microsomes; equilibrated): 1.4 ± 0.1 µM/min
Superoxide anion production of microsomes in presence of compound, NE form (Cb5R from microsomes): 1.7 ± 0.1 µM/min
Quinoidal base disappeared, forming the trans-chalcone [3]: ca. 40%
Compound: Oc1ccc(-c2ccc3ccc(O)cc3[o+]2)cc1 [Compound 1]

inhibition at 40 µM [1, 5]: 81.8 ± 2.3%
inhibition at 40 µM [1, 6]: 71 ± 4.7%
IC50 [1, 7]: 3.3 ± 0.4 µM
IC50 ([1]; non-equilibrated, read-out: IC50, NADH: ferricyanide reductase activity of microsomes, NE form): 8 ± 2.2 µM
Maximum inhibition of NADH: ferricyanide reductase activity in microsomes, E form ([1]; equilibrated): 81 ± 2%
Maximum inhibition of NADH: ferricyanide reductase activity in microsomes, NE form ([1]; non-equilibrated): 77 ± 2%
inhibition at 40 µM [2, 8]: 80.6 ± 0.8%
inhibition at 40 µM [2, 9]: 65.6 ± 2.9%
Superoxide anion production of microsomes in presence of compound, NE form (Cb5R from microsomes): 1.4 ± 0.1 µM/min
Quinoidal base disappeared, forming the trans-chalcone [3]: ca. 40%
Compound: Oc1ccc2ccc(-c3ccc(O)c(O)c3)[o+]c2c1 [Compound 5]

Compound: O=C1C[C@@H](c2ccc(O)cc2)Oc2cc(O)cc(O)c21 [Naringenin]
Inhibition of Cb5R in vitro ([4]; in vitro studies): did not inhibit

Compound: O=c1cc(-c2ccc(O)cc2)oc2cc(O)cc(O)c12 [apigenin]
IC50 [4]: 36 µM

Compound: Oc1cc(O)c2c(c1)O[C@H](c1ccc(O)c(O)c1)[C@@H](O)C2 [catechin]
IC50 [4]: 4.5 µM

Compound: Oc1cc(O)c2c(c1)O[C@H](c1ccc(O)c(O)c1)[C@H](O)C2 [epicatechin]
IC50 [4]: 3.2 µM

Compound: O=c1cc(-c2ccc(O)c(O)c2)oc2cc(O)cc(O)c12 [luteolin]
IC50 [4]: 0.11 µM

Compound: O=c1c(O)c(-c2ccc(O)c(O)c2)oc2cc(O)cc(O)c12 [quercetin]
IC50 [4]: 1.1 µM

Source: paper PMC9822168, “The Use of Flavylium Salts as Dynamic Inhibitor Moieties for Human Cb5R” (Molecules, 2022)
